Measured values as given in patent publication US20180368404A1, “3-PYRIDYL HETEROBICYCLIC COMPOUND FOR CONTROLLING INVERTEBRATE PESTS” (BASF SE, priority 2014, published 2018).

Tests used:
Format in all cases: in vivo
[1] = test system: Cotton Aphid (Aphis gossypii, Mixed Life Stages); assay: Cotton aphid spray test on infested cotton plants; details: 120 h, after 5 days, read-out: mortality in comparison with untreated controls
Protocol: (§1) The active compounds were formulated in cyclohexanone as a 10,000 ppm solution supplied in 1.3 ml ABgene® tubes. These tubes were inserted into an automated electrostatic sprayer equipped with an atomizing nozzle and they served as stock solutions for which lower dilutions were made in 1:1 (vol:vol) water: acetone. A nonionic surfactant (Kinetic®) was included in the solution at a volume of 0.01% (v/v).
Cotton plants at the cotyledon stage were infested with aphids prior to treatment by placing a heavily infested leaf from the main aphid colony on top of each cotyledon. Aphids were allowed to transfer overnight to accomplish an infestation of 80-100 aphids per plant and the host leaf was removed. The infested plants were then sprayed by an automated electrostatic plant sprayer equipped with an atomizing spray nozzle. The plants were dried in the sprayer fume hood, removed from the sprayer, and then maintained in a growth room under fluorescent lighting in a 24-hr photoperiod at 25° C. and 20-40% relative humidity. Aphid mortality on the treated plants, relative to mortality on untreated control plants, was determined after 5 days.

[2] = test system: Vetch Aphid (Megoura viciae); assay: Vetch aphid bean leaf disk microtiter test; details: foliar, 144 h, leaf disks sprayed with 2.5 μl, 6 days, read-out: mortality in comparison with untreated controls
Protocol: The active compounds were formulated in 3:1 (vol:vol) water: DMSO with different concentrations of formulated compounds.
Bean leaf disks were placed into microtiterplates filled with 0.8% agar-agar and 2.5 ppm OPUS™. The leaf disks were sprayed with 2.5 μl of the test solution and 5 to 8 adult aphids were placed into the microtiter plates which were then closed and kept at 23±1° C. and 50±5% relative humidity under fluorescent light for 6 days. Mortality was assessed on the basis of vital, reproduced aphids. Aphid mortality and fecundity was then visually assessed.

[3] = test system: Silverleaf Whitefly (Bemisia argentifolii, Adult); assay: Silverleaf whitefly test on sprayed cotton plants; details: 72 h, 3 days after treatment, read-out: mortality in comparison with untreated controls
Protocol: as §1
Cotton plants at the cotyledon stage (one plant per pot) were sprayed by an automated electrostatic plant sprayer equipped with an atomizing spray nozzle. The plants were dried in the sprayer fume hood and then removed from the sprayer. Each pot was placed into a plastic cup and 10 to 12 whitefly adults (approximately 3-5 days […]) were introduced. The insects were collected using an aspirator and 0.6 cm, nontoxic Tygon® tubing (R-3603) connected to a barrier pipette tip. The tip, containing the collected insects, was then gently inserted into the soil containing the treated plant, allowing insects to crawl out of the tip to reach the foliage for feeding. Cups were covered with a reusable screened lid (150-micron mesh polyester screen PeCap from Tetko, Inc.). Test plants were maintained in a growth room at 25° C. and 20-40% relative humidity for 3 days, avoiding direct exposure to fluorescent light (24 hour photoperiod) to prevent trapping of heat inside the cup. Mortality was assessed 3 days after treatment, compared to untreated control plants.

[4] = test system: Green Peach Aphid (Myzus persicae); assay: Green peach aphid spray test on infested bell pepper plants; details: 120 h, after 5 days, read-out: mortality in comparison with untreated controls
Protocol: as §1
Bell pepper plants at the first true-leaf stage were infested prior to treatment by placing heavily infested leaves from the main colony on top of the treatment plants. Aphids were allowed to transfer overnight to accomplish an infestation of 30-50 aphids per plant and the host leaves were removed. The infested plants were then sprayed by an automated electrostatic plant sprayer equipped with an atomizing spray nozzle. The plants were dried in the sprayer fume hood, removed, and then maintained in a growth room under fluorescent lighting in a 24 hour photoperiod at 25° C. and 20-40% relative humidity. Aphid mortality on the treated plants, relative to mortality on untreated control plants, was determined after 5 days.

[5] = test system: Orchid thrips (Dichromothrips corbetti); assay: Orchid thrips petal dip test; details: petals dipped, after 72 hours, read-out: mortality in comparison with untreated controls
Protocol: The active compounds were formulated as a 1:1 (vol:vol) water: acetone solution. Surfactant (Alkamuls EL 620) was added at the rate of 0.1% (vol/vol). Vanda orchids petals were cleaned, washed and air dried prior to spraying. Petals were dipped into the test solution for 3 seconds, air dried, placed inside a resealable plastic and inoculated with 20 adults. The treated petals were kept inside the […] room at 28-29° C. and relative humidity of 50-60%. Percent mortality was recorded after 72 hours.

[6] = test system: Cowpea Aphid (Aphis craccivora); assay: Cowpea aphid spray test on potted cowpea plants; details: population reduction assessed after 24, 72 and 120 hours, read-out: mortality in comparison with untreated controls
Protocol: If not otherwise specified the test solutions were prepared as follows:
The active compound was dissolved at the desired concentration in a mixture of 1:1 (vol:vol) distilled water: acetone. The test solution was prepared at the day of use and in general at concentrations of ppm (wt/vol).
Potted cowpea plants colonized with 100-150 aphids of various stages were sprayed after the pest population had been recorded. Population reduction was assessed after 24, 72, and 120 hours.

CCOCC[S+]([O-])c1ccc2nn(-c3cccnc3)cc2n1 (centres unmarked) [I-D39, 5-(2-ethoxyethylsulfinyl)-2-(3-pyridyl)pyrazolo[4,3-b]pyridine]
≥ 75%: mortality at 300 ppm [1] | mortality at 800 ppm [2] | mortality at 300 ppm [3] | mortality at 300 ppm [4]

FC(F)(F)COc1ccc2nc(-c3cccnc3)cn2n1 [I-E14, 2-(3-pyridyl)-6-(2,2,2-trifluoroethoxy)imidazo[1,2-b]pyridazine]
≥ 75%: mortality at 300 ppm [1] | mortality at 800 ppm [2] | mortality at 300 ppm [3] | mortality at 300 ppm [4]

CC(C)(COc1ccc2nn(-c3cccnc3)cc2n1)S(C)(=O)=O [I-D59, 5-(2-methyl-2-methylsulfonyl-propoxy)-2-(3-pyridyl)pyrazolo[4,3-b]pyridine]
≥ 75%: mortality at 500 ppm [5] | mortality at 300 ppm [1] | mortality at 800 ppm [2] | mortality at 300 ppm [3] | mortality at 500 ppm [6] | mortality at 300 ppm [4]

COc1ccc2nn(-c3cccnc3)cc2c1 [I-B4, 5-methoxy-2-(3-pyridyl)indazole]
≥ 75%: mortality at 300 ppm [3]

CCOCCS(=O)(=O)c1ccc2nn(-c3cccnc3)cc2n1 [I-D46, 5-(2-ethoxyethylsulfonyl)-2-(3-pyridyl)pyrazolo[4,3-b]pyridine]
≥ 75%: mortality at 300 ppm [1] | mortality at 800 ppm [2] | mortality at 300 ppm [3] | mortality at 300 ppm [4]

CCOCCSc1ccc2nn(-c3cccnc3)cc2n1 [I-D16, 5-(2-ethoxyethylsulfanyl)-2-(3-pyridyl)pyrazolo[4,3-b]pyridine]
≥ 75%: mortality at 300 ppm [1] | mortality at 800 ppm [2] | mortality at 300 ppm [4]

CCOCCSc1ccc2nn(-c3cccnc3)cc2c1 [I-B5, 5-(2-ethoxyethylsulfanyl)-2-(3-pyridyl)indazole]
≥ 75%: mortality at 800 ppm [2] | mortality at 500 ppm [6]

COc1ccc2nn(-c3cccnc3)cc2n1 [I-D57, 5-methoxy-2-(3-pyridyl)pyrazolo[4,3-b]pyridine]
≥ 75%: mortality at 300 ppm [1] | mortality at 800 ppm [2] | mortality at 300 ppm [3] | mortality at 500 ppm [6] | mortality at 300 ppm [4]

COc1ccc2nc(-c3cccnc3)oc2n1 [I-K1, 5-methoxy-2-(3-pyridyl)oxazolo[5,4-b]pyridine]
≥ 75%: mortality at 300 ppm [1] | mortality at 800 ppm [2] | mortality at 300 ppm [3] | mortality at 500 ppm [6] | mortality at 300 ppm [4]

COc1ccc2nc(-c3cccnc3)sc2n1 [I-H4, 5-methoxy-2-(3-pyridyl)thiazolo[5,4-b]pyridine]
≥ 75%: mortality at 500 ppm [6]

CCOCCSc1cccc2nn(-c3cccnc3)cc12 [I-C1, 4-(2-ethoxyethylsulfanyl)-2-(3-pyridyl)indazole]
≥ 75%: mortality at 300 ppm [1] | mortality at 800 ppm [2] | mortality at 300 ppm [3] | mortality at 500 ppm [6] | mortality at 300 ppm [4]

COc1ccc2nc(-c3cccnc3)oc2c1 [I-1, 6-methoxy-2-(3-pyridyl)-1,3-benzoxazole]
≥ 75%: mortality at 500 ppm [6]
